From patent US20160045503A1, “FORMULATIONS CONTAINING REVERSIBLE COVALENT COMPOUNDS” (PRINCIPIA BIOPHARMA INC., priority 2012, published 2016)

Experiments:
human recombinant Btk = human recombinant Btk (Homo sapiens, UniProt Q06187); assay: Btk Enzymatic Activity Assay (Caliper-based kinase assay); type: biochemical; conditions: human recombinant Btk 2 nM, ATP 40 uM, peptide substrate 1 uM, room temperature, 3 h
Procedure: A Caliper-based kinase assay (Caliper Life Sciences, Hopkinton, Mass.) was used to measure inhibition of Btk kinase activity of a compound of Formula (I). […] The reaction was then terminated with EDTA, final concentration 20 mM and the phosphorylated reaction product was quantified on a Caliper Desktop Profiler (Caliper LabChip 3000). […] This value is presented as the IC50.

[1] = Determination of Bioavailability, stomach (oral gavage) v. intraduodenal administration; type: in vivo, Rats; conditions: rat; for % increase: ID versus PO; for AUC / Cmax / bioavailability: plasma
Procedure: Rats with surgically implanted intra-duodenal catheters were obtained commercially. Rats were dosed with solution or suspension of (S)-2-(2-((4-amino-3-(2-fluoro-4-phenoxyphenyl)-1H-pyrazolo[3,4-d]pyrimidin-1-yl)methyl)pyrrolidine-1-carbonyl)-4-methyl-4-morpholinopent-2-enenitrile; via bolus injection: oral gavage was done to measure exposure after oral dosing, or dosing via administration through the intra-duodenal catheter to measure exposure bypassing the stomach. […] Blood was withdrawn at time points out to 24 hours and compound quantitated via LC/MS/MS to obtain plasma concentrations. PK parameters were calculated via commercially available software and measures of exposure were used to assess differences in dosing routes. The table below summarizes exposures as measured by area under the curve (AUC), concentration at its maximum (Cmax), and bioavailability.

protein target = assay: Reversibility of Binding (compound in solution before and after denaturation or digestion of the target, HPLC-MS/MS); conditions: for Compound in solution in the denatured or digested state?: after denaturation with 5 M guanidine hydrochloride and digestion with trypsin; for compound in solution following perturbation of the target: perturbed state; for Compound in solution in the native state?: target in excess over compound
Procedure: The following approach was developed to differentiate compounds that form irreversible bonds with their targets, such as acrylamide compounds, from compound that bind reversibly. […] The reactions were then treated with perturbations including both denaturation with 5 M guanidine hydrochloride and digestion with trypsin, disrupting proper folding of the target. […] The concentration of compound in solution was assessed both preceding and following perturbation using high performance liquid chromatography (HPLC) coupled to tandem mass spectrometry.

[2] = 20 mg/kg, ID (intra-duodenal), 20 mg/kg in 15% cyclodextrin, Experiment 1
[3] = 20 mg/kg, ID (intra-duodenal), 20 mg/kg in 15% cyclodextrin, Experiment 2
[4] = 100 mg/kg, ID 100 mg/kg, 0.5% xanthum gum suspension
[5] = po, 20 mg/kg, 20 mg/kg in 15% cyclodextrin, Experiment 1
[6] = po, 20 mg/kg, 20 mg/kg in 15% cyclodextrin, Experiment 2
[7] = po, 100 mg/kg, PO 100 mg/kg, 0.5% xanthum gum suspension

human recombinant Btk, sequence (Q06187 whole entry): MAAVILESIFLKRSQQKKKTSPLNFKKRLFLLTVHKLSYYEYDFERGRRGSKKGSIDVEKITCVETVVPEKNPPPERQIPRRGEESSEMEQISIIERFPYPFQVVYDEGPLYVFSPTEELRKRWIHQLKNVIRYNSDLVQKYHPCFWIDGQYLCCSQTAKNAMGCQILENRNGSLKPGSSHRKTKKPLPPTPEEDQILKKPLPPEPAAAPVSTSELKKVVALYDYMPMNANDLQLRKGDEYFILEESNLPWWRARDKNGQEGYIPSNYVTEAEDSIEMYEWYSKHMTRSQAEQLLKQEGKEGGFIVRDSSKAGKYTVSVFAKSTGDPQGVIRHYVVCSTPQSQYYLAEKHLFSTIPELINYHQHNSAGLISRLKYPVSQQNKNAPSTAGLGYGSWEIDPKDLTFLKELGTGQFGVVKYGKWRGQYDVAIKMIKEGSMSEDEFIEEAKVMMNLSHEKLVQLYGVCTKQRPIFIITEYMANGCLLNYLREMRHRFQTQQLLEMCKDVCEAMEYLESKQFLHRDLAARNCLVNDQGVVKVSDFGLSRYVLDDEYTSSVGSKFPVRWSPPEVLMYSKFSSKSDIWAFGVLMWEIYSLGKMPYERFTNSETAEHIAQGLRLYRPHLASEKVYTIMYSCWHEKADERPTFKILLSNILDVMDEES

## (S)-4-amino-2-(2-((4-amino-3-(4-(2,3-difluorophenoxy)-2-fluorophenyl)-1H-pyrazolo[3,4-d]pyrimidin-1-yl)methyl)pyrimidine-1-carbonyl)-4-methylpent-2-enenitrile [Cpd 104B]
Human recombinant Btk
  IC50: 20 nM

## CC(C)(C)C=C(C#N)C(=O)N1CCCC1Cn1nc(-c2ccc(Oc3ccccc3)cc2)c2c(N)ncnc21 (stereo not shown) [Cpd 10, 2-(2-((4-amino-3-(4-phenoxyphenyl)-1H-pyrazolo[3,4-d]pyrimidin-1-yl)methyl)pyrrolidine-1-carbonyl)-4,4-dimethylpent-2-enenitrile]
Human recombinant Btk
  IC50: 5.4 nM

## CC(C)C=C(C#N)C(=O)N1CCC[C@H]1Cn1nc(-c2ccc(Oc3cccc(F)c3F)cc2F)c2c(N)ncnc21 [Cpd 102B, (S)-2-(2-((4-amino-3-(4-(2,3-difluorophenoxy)-2-fluorophenyl)-1H-pyrazolo[3,4-d]pyrimidin-1-yl)methyl)pyrrolidine-1-carbonyl)-4-methylpent-2-enenitrile]
Human recombinant Btk
  IC50: 6 nM

## N#CC(=CC1CC1)C(=O)N1CCCC1Cn1nc(-c2ccc(Oc3ccccc3)cc2)c2c(N)ncnc21 (stereo not shown) [Cpd 2, 2-(2-((4-amino-3-(4-phenoxyphenyl)-1H-pyrazolo[3,4-d]pyrimidin-1-yl)methyl)pyrrolidine-1-carbonyl)-3-cyclopropylacrylonitrile]
Human recombinant Btk
  IC50: 3.7 nM

## CC(C)(C=C(C#N)C(=O)N1CCC[C@H]1Cn1nc(-c2ccc(Oc3ccccc3)cc2F)c2c(N)ncnc21)N1CCOCC1 [Cpd 95B, (S)-2-(2-((4-amino-3-(2-fluoro-4-phenoxyphenyl)-1H-pyrazolo[3,4-d]pyrimidin-1-yl)methyl)pyrrolidine-1-carbonyl)-4-methyl-4-morpholinopent-2-enenitrile]
[1]; 20 mg/kg in 15% cyclodextrin, Experiment 1
  % increase: 409%
[1]; 20 mg/kg in 15% cyclodextrin, Experiment 2
  % increase: 232%
[1]; 100 mg/kg, 0.5% xanthum gum suspension
  % increase: 220%
[1]; [2]
  AUC: 630 ng·h/mL
  Cmax: 1400 ng/mL
  bioavailability: 27%
[1]; [3]
  AUC: 1500 ng·h/mL
  Cmax: 1650 ng/mL
  bioavailability: 64.6%
[1]; [4]
  AUC: 1900 ng·h/mL
  Cmax: 870 ng/mL
  bioavailability: 16.3%
[1]; [5]
  AUC: 154 ng·h/mL
  Cmax: 145 ng/mL
  bioavailability: 6.6%
[1]; [6]
  AUC: 647 ng·h/mL
  Cmax: 406 ng/mL
  bioavailability: 27.8%
[1]; [7]
  AUC: 858 ng·h/mL
  Cmax: 149 ng/mL
  bioavailability: 7.4%

## N#CC(=CC1CC1)C(=O)N1CCC[C@H]1Cn1nc(-c2ccc(Oc3c(F)cccc3F)cc2F)c2c(N)ncnc21 [Cpd 44B, (S)-2-(2-((4-amino-3-(2-fluoro-4-(2,6-difluorophenoxy)phenyl)-1H-pyrazolo[3,4-d]pyrimidin-1-yl)methyl)pyrrolidine-1-carbonyl)-3-cyclopropylacylonitrile]
Human recombinant Btk
  IC50: 3 nM

## CNC(C)(C)C=C(C#N)C(=O)N1CCC[C@@H]1Cn1nc(C2(Oc3ccccc3)C=CC=CC2F)c2c(N)ncnc21 (stereo partly drawn) [Cpd 83A, (R)-2-(2-((4-amino-3-(2-fluoro-1-phenoxyphenyl)-1H-pyrazolo[3,4-d]pyrimidin-1-yl)methyl)pyrrolidine-1-carbonyl)-4-methyl-4-(methylamino)pent-2-enenitrile]
Human recombinant Btk
  IC50: 1.4 nM

## C=CC(=O)N1CCC[C@@H](n2nc(-c3ccc(Oc4ccccc4)cc3)c3c(N)ncnc32)C1 [reference compound]
Protein target
  Compound in solution in the denatured or digested state?: no
  compound in solution following perturbation of the target: depleted from solution
Protein target; before perturbation
  depletion of compound from solution in the native (folded) state: depleted from solution
  Compound in solution in the native state?: no

## COc1cc(-c2nn(CC3CCCN3C(=O)C(C#N)=CC3CC3)c3ncnc(N)c23)ccc1Oc1ccc(Cl)c(Cl)c1 (stereo not shown) [Cpd 5]
Human recombinant Btk
  IC50: 1 nM

## CC(C)(C)C=C(C#N)C(=O)N1CCC(n2nc(-c3ccc(Oc4ccccc4)cc3)c3c(N)ncnc32)CC1 [Cpd 8, 2-(4-(4-amino-3-(4-phenoxyphenyl)-1H-pyrazolo[3,4-d]pyrimidin-1-yl)piperidine-1-carbonyl)-4,4-dimethylpent-2-enenitrile]
Human recombinant Btk
  IC50: 130 nM

## N#CC(=CC1CC1)C(=O)N1CCC[C@@H]1Cn1nc(-c2ccc(Oc3ccccc3)cc2F)c2c(N)ncnc21 [Cpd 27A, (R)-2-(2-((4-amino-3-(2-fluoro-4-phenoxyphenyl)-1H-pyrazolo[3,4-d]pyrimidin-1-yl)methyl)pyrrolidine-1-carbonyl)-3-cyclopropylacrylonitrile]
Protein target
  Compound in solution in the denatured or digested state?: yes
  compound in solution following perturbation of the target: returned to solution
Protein target; before perturbation
  Compound in solution in the native state?: no

## N#CC(=CC1(N)CC1)C(=O)N1CCC[C@@H]1Cn1nc(-c2ccc(Oc3ccccc3)cc2F)c2c(N)ncnc21 [Cpd 90A, (R)-2-(2-((4-amino-3-(2-fluoro-4-phenoxyphenyl)-1H-pyrazolo[3,4-d]pyrimidin-1-yl)methyl)pyrrolidine-1-carbonyl)-3-(1-aminocyclopropyl)acrylonitrile]
Human recombinant Btk
  IC50: 52 nM

## C[C@@H](Cn1nc(-c2ccc(Oc3ccccc3)cc2F)c2c(N)ncnc21)NC(=O)C(C#N)=CC(C)(C)N [Cpd 195, (S)-4-amino-N-(1-(4-amino-3-(2-fluoro-4-phenoxyphenyl)-1H-pyrazolo[3,4-d]-pyrimidin-1-yl)propan-2-yl)-2-cyano-4-methylpent-2-enamide]
Human recombinant Btk
  IC50: 6 nM

## CC(C)(C)C=C(C#N)C(=O)N1CCC[C@H]1Cn1cc(-c2ccc(Oc3cccc(F)c3F)cc2)c2c(N)ncnc21 [Cpd 173B, (S)-2-(2-((4-amino-5-(4-(2,3-difluorophenoxy)phenyl)-7H-pyrrolo[2,3-d]pyrimidin-7-yl)methyl)pyrrolidine-1-carbonyl)-4,4-dimethylpent-2-enenitrile]
Human recombinant Btk
  IC50: 34 nM

## CNC(C)(C)C=C(C#N)C(=O)N1CCC[C@H]1Cn1nc(-c2ccc(Oc3cccc(F)c3F)cc2F)c2c(N)ncnc21 [Cpd 105B]
Human recombinant Btk
  IC50: 25.5 nM
